The source of these data is US11684660B2, “Human PD1 peptide vaccines and uses thereof” (OHIO STATE INNOVATION FOUNDATION, priority 2017, dated 2023).

One experiment deals with Nivolumab. Put plainly: BIACORE SPR binding to immobilized Nivolumab. The following applies: 1 μM peptide. The procedure: 1 μM BSA was used as the negative control. The chip was regenerated by 10 mM Glycine-HCl, pH 2.5(FIG. 3E).
1 μM of various PD-1 peptides were injected over the chip for 1 min at 10 μl/min followed by 1 min dissociation and then 1 min regeneration with 10 mM Glycine-HCl, pH 2.5 for each run.
(In general: SPR reads the build-up and loss of mass on a sensor chip optically.)

The test system of experiment [1] is tumor infiltrating lymphocytes. Put plainly: Analysis of tumor infiltrating lymphocytes from peptide-vaccinated mice. The format is in vivo, Balb/c mice. The procedure: CD4 (20A) and CD8 (20B) T cells were determined by flow cytometry (gated on CD45+ cells). Foxp3+CD25+CD4 Tregs ([…]) were determined by intracellular staining (gated on CD45+CD4+ cells). […] Group means were calculated and compared with Anova
FIGS. 21A and 21B show Analysis of tumor infiltrating lymphocytes from peptide-vaccinated mice. […] Tumor infiltrating cells were isolated from combined tumor tissue from […] (group A to F) of treated mice in first in vivo experiment. Tumor infiltrating cells were isolated from each mouse in group 5 and 6 from second in vivo experiment. CD4 and CD8 cells were determined by flow cytometry (gated on CD45+ infiltrating cells). FoxP3 expression on CD25+CD4+ T cells were determined by intracellular staining (gated on CD45+CD4+ cells). […] CD4 and CD8 cells were determined by flow cytometry (gated on CD45+ infiltrating cells). FoxP3 expression on CD25+CD4+ T cells were determined by intracellular staining (gated on CD45+CD4+ cells). Group means were calculated and compared with Anova. Error bars denote s.e.m.
On the other hand, high numbers of T cells at the tumor site, especially CD8 T cells, is a key denominator for overall survival (OS) in cancer patients. […] Therefore, it was determined CD8/Treg ratio in TIC in tumor-bearing mice vaccinated with combination peptides or control peptide (described above). […] The cells were then incubated with mAbs to the cell-surface markers (CD45, CD4, CD8, CD25 Then the cells were fixed and permeabilized using Cytofix/Cytoperm solution (ebioscience) for 60 min at 4° C., followed by staining for FoxP3 for 30 min at 4° C. 80,000-100,000 live cell events were acquired on a FACSCantoII (BD) and analyzed using FlowJo software (Tree Star, Inc.). To differentiate TILs from tumor cells, the cells were first gated on CD45^+ cells. Then the CD4^+ (FIG. 20A) and CD8^+ (FIG. 20B) cells were analyzed. Tregs were represented by CD4^+CD25^+FoxP3^+ cells (FIG. 20C). GraphPad software (GraphPad Prism Software, Inc., San Diego, Calif., USA) was utilized for statistical analysis. Group means were calculated and compared with Anova. […]

No end group written: not given here.

As for “KLLSLIKGVIVHRLEGVE-GPSL-GAISLAPKAQIKESLRAEL-CONH2 (KLLSLIKGVIVHRLEGVEGPSLGAISLAPKAQIKESLRAEL-NH2) [MVF-PD-1 (92-110)]”, the “binding to immobilized Nivolumab (in words)” value in the experiment on Nivolumab is recorded as “bind”. For the same substance, the “SPR response of peptide binding to immobilized Nivolumab” value in the experiment with Nivolumab (1 min at 10 μl/min) turned out to be 970 RU. In addition, the “CD4 T cells or Treg cells in TILs, differences among groups” value in experiment [1] (Anova) was “no significant differences”. Besides, in experiment [1] (gated on CD45+ cells, Anova), the “CD8+ T cells in TILs compared to control peptide-vaccinated group” value was “significantly higher”. Further, in experiment [1] (mouse, in vivo), the “CD8/Treg ratio in TILs compared to control peptide-vaccinated group” value is recorded as “increased”.
